Measurements: patent US9056111B1, “Selective efflux inhibitors and related pharmaceutical compositions and methods of treatment” (STC.UNM, priority 2011, dated 2015)

Assays:
ABCB1 = ABCB1 (Homo sapiens, UniProt P08183); assay: JC-1 efflux inhibition dose response, flow cytometry, Jurkat-DNR cells; details: for IC50: IC50 ABCB1 (efflux inhibition of JC-1 substrate), Jurkat-DNR cells over-expressing ABCB1, averages of two to four replicates
Procedure: (§1) The HyperCyt® high throughput flow cytometry platform (IntelliCyt™, Albuquerque, N. Mex.) was used to sequentially sample cells from 384-well microplates (2 μL/sample) for flow cytometer presentation at a rate of 40 samples per minute.^62-63 Flow cytometric analysis was performed on a CyAn™ flow cytometer (Beckman-Coulter, Fullerton, Calif.). The resulting time-gated data files were analyzed with HyperView® software to determine compound activity in each well. Inhibition response curves were fitted by Prism® software (GraphPad Software, Inc., San Diego, Calif.) using nonlinear least-squares regression in a sigmoidal dose response model with variable slope, also known as the four-parameter logistic equation. This type of time-gated flow cytometric data analysis was described in detail for a previous ABC transporter screen from our group.^56
The assay provider's ABCB1 over-expressing Jurkat-DNR cell line is used for confirmatory follow up instead of the CCRF-Adr cells. Each cell line (Jurkat-DNR and Ig-MXP3) is run separately against all compounds (no differential cell staining) in dose response. The assay is conducted in 384-well format in a total volume of 15.1 μL. Cells and reagents are added sequentially as follows: 1) PBS buffer (5 μL/well); 2) test compound (100 nL/well); 3) drug-resistant cells (10 μL/well) pre-stained with the JC-1 substrate at 1 μM. Final in-well concentrations of test compound range from 50 μM to 69 nM over an 18 point dose response and the cell concentration is 1×10^6 cells/mL. Nicardipine (50 μM) is added to each plate as a pan-inhibition positive control. The plate is rotated end-over-end at 4 RPM and 25° C. for 30 minutes and then cell samples are analyzed and flow cytometric data of light scatter and fluorescence emission at 530+/−20 nm (488 nm excitation, FL1) are collected.
(§2) Each cell line (Jurkat-DNR and Ig-MXP3) was run separately against all compounds (no differential cell staining) in dose-response. The protocol differed from the single point screen as describe here. Cells and reagents were added sequentially as follows: 1) PBS buffer (5 μL per well); 2) test compound (100 nL per well); 3) drug-resistant cells (10 μL, per well) pre-exposed to the JC-1 substrate at 1 μM just prior to the well addition. Final in-well concentrations of test compound ranged from 50 μM to 69 nM over an 18 point dose-response and the cell concentration was 1×10^6 cells mL^−1.

ABCB1 / ABCG2 = molecular target: T1, ABCB1 / ABCG2 (Homo sapiens, UniProt Q9UNQ0); assay: JC-1 efflux inhibition dose response, flow cytometry, Ig-MXP3 cells; details: human, probe JC-1 (1 µM), ~Fold G2 Selective (B1/G2), quotient of average ABCB1 IC50 and average ABCG2 IC50, efflux assay
T1 sequence (Q9UNQ0 1-655): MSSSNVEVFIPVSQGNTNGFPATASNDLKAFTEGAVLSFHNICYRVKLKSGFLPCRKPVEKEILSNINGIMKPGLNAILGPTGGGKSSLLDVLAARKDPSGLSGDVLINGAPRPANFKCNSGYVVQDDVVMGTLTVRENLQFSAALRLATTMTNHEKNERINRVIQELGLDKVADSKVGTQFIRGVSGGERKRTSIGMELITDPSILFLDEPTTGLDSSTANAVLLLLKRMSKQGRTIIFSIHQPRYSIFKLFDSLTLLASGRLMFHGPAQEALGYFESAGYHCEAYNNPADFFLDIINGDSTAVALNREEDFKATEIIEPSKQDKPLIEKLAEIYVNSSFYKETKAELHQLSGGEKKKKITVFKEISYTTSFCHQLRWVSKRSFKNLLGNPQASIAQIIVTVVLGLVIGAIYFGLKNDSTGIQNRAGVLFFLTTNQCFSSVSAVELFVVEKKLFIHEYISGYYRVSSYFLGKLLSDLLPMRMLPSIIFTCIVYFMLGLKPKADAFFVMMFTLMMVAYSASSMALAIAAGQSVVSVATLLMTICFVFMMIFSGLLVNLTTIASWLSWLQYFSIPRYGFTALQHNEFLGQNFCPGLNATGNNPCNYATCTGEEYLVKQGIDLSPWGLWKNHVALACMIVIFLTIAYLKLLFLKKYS
Procedure: as §1
(§3) The assay provider's ABCB1 over-expressing Jurkat-DNR cell line is used for confirmatory follow up instead of the CCRF-Adr cells. Each cell line (Jurkat-DNR and Ig-MXP3) is run separately against all compounds (no differential cell staining) in dose response. The assay is conducted in 384-well format in a total volume of 15.1 μL. Cells and reagents are added sequentially as follows: 1) PBS buffer (5 μL/well); 2) test compound (100 nL/well); 3) drug-resistant cells (10 μL/well) pre-stained with the JC-1 substrate at 1 μM. […] Nicardipine (50 μM) is added to each plate as a pan-inhibition positive control.
as §2, with “addition.” for “addition. Final in-well concentrations of test compound ranged from 50 μM to 69 nM over an 18 point dose-response and the cell concentration was 1×10^6 cells mL^−1.”

ABCG2 = molecular target: T2, ABCG2 (Homo sapiens, UniProt Q9UNQ0); assay: as above
T2 sequence (Q9UNQ0 1-655): T1 sequence (Q9UNQ0 1-655)
Procedure: as §1, §3
as §2, with “addition.” for “addition. Final in-well concentrations of test compound ranged from 50 μM to 69 nM over an 18 point dose-response and the cell concentration was 1×10^6 cells mL^−1.”

ABCB1, sequence (P08183 whole entry): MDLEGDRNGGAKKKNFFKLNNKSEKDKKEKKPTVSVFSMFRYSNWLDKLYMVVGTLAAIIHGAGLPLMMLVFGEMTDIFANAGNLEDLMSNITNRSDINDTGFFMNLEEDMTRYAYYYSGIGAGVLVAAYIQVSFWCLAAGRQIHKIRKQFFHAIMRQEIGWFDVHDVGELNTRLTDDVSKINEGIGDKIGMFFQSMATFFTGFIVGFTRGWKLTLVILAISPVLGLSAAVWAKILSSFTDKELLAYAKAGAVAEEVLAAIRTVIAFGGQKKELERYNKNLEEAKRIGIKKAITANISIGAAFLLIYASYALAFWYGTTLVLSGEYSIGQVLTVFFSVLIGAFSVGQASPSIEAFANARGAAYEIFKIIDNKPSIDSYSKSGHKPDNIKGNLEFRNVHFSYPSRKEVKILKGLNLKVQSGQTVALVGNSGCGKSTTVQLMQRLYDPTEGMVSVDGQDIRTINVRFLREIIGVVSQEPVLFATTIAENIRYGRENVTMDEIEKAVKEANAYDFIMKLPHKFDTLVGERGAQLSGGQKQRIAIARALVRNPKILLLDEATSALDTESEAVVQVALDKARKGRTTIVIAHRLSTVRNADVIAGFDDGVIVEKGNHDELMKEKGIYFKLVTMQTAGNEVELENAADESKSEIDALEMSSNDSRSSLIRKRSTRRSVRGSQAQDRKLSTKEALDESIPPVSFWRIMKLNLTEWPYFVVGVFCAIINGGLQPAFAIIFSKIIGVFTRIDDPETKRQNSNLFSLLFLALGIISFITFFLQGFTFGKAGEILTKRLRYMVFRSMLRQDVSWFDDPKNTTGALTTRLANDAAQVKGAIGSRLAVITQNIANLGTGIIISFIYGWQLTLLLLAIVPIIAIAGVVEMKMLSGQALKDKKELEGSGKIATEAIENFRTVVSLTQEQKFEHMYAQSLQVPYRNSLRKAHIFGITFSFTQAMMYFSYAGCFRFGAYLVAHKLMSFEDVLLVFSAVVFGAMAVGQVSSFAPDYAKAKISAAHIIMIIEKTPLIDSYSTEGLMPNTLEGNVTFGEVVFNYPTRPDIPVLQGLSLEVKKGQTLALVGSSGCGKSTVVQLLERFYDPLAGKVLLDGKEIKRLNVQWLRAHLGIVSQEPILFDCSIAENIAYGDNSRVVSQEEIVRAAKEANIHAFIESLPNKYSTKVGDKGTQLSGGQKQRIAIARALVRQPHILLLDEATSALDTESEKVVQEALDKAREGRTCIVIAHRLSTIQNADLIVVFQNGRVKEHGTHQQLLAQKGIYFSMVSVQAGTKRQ

| Compound | IC50 (ABCB1) [µM] | selectivity ratio at 30 min (ABCB1 / ABCG2) | IC50 (ABCG2) [µM] | efflux inhibition activity ABCB1 (ABCB1; JC-1 efflux, Jurkat-DNR) | ~Fold G2 Selective (B1/G2) (ABCG2; quotient of average ABCB1 IC50 and average ABCG2 IC50, efflux assay) [fold] |
| --- | --- | --- | --- | --- | --- |
| O=C(c1ccccc1)N1CCN(c2cc(-c3ccccc3)nc3cc(-c4cccc(F)c4)nn23)CC1 [Compound 42] | 4.34 ± 2.09 | 1.9 | 2.27 ± 0.06 | – | – |
| O=C(c1ccccc1)N1CCN(c2cc(-c3ccccc3)nc3cc(-c4ccc(F)cc4)nn23)CC1 [Compound 43] | 3.99 ± 2.31 | 2 | 2.03 ± 0.11 | – | – |
| COc1ccc(-c2cc(N3CCN(C(=O)c4ccoc4)CC3)n3nc(-c4ccccc4)cc3n2)cc1 [Compound 45] | 4.55 | 1.9 | 2.37 ± 1.8 | – | – |
| O=C(c1ccoc1)N1CCN(c2cc(-c3ccccc3F)nc3cc(-c4ccccc4)nn23)CC1 [Compound 46] | 5.61 | 10 | 0.56 | – | – |
| O=C(c1ccoc1)N1CCN(c2cc(-c3cccc(F)c3)nc3cc(-c4ccccc4)nn23)CC1 [Compound 47] | 7.07 | 4.2 | 1.68 ± 0.61 | – | – |
| O=C(c1ccoc1)N1CCN(c2cc(-c3ccc(F)cc3)nc3cc(-c4ccccc4)nn23)CC1 [Compound 48] | 11.8 | 1.8 | 6.45 | – | – |
| CC(C)(C)c1cc(N2CCN(C(=O)c3ccoc3)CC2)n2nc(-c3ccccc3)cc2n1 [Compound 49] | 5.62 | 0.5 | 11.5 | – | – |
| CC(C)(C)c1cc2nc(-c3ccco3)cc(N3CCN(C(=O)c4ccoc4)CC3)n2n1 [Compound 50] | 3.31 | 1.7 | 1.97 | – | – |
| O=C(c1ccoc1)N1CCN(c2cc(-c3ccco3)nc3cc(-c4cccs4)nn23)CC1 [Compound 51] | 8.42 | 5.4 | 1.56 ± 1.3 | – | – |
| O=C(c1ccoc1)N1CCN(c2cc(-c3ccco3)nc3cc(-c4ccc(Cl)cc4)nn23)CC1 [Compound 54] | 41.5 | 22 | 1.89 ± 1.18 | – | – |
| COc1ccccc1-c1cc2nc(-c3ccco3)cc(N3CCN(C(=O)c4ccoc4)CC3)n2n1 [Compound 55] | 5.57 | 2 | 2.76 ± 2.14 | – | – |
| Cc1cccc(-c2cc3nc(-c4ccco4)cc(N4CCN(C(=O)c5ccoc5)CC4)n3n2)c1 [Compound 58] | 3.45 | 5.9 | 0.58 | – | – |
| Cc1ccc(-c2cc3nc(-c4ccco4)cc(N4CCN(C(=O)c5ccoc5)CC4)n3n2)cc1 [Compound 59] | 11.3 | 2.2 | 5.19 ± 4.22 | – | – |
| O=C(c1ccoc1)N1CCN(c2cc(-c3ccco3)nc3cc(-c4cccc(-c5ccco5)c4)nn23)CC1 [Compound 60] | 3.98 ± 1.3 | 4.3 | 0.93 ± 0.27 | – | – |
| O=C(c1ccoc1)N1CCN(c2cc(-c3ccccc3)nc3cc(-c4ccccc4)nn23)CC1 [Compound 62] | 4.79 ± 4.23 | 3 | 1.58 ± 0.63 | – | – |
| Cc1cc(N2CCN(C(=O)c3ccoc3)CC2)n2nc(-c3ccccc3)cc2n1 [Compound 63] | 15.8 ± 3.33 | 2.2 | 7.27 ± 3.01 | – | – |

| Compound | IC50 (ABCB1) [µM] | selectivity ratio at 30 min (ABCB1 / ABCG2) | IC50 (ABCG2) [µM] | efflux inhibition activity ABCB1 (ABCB1; JC-1 efflux, Jurkat-DNR) | ~Fold G2 Selective (B1/G2) (ABCG2; quotient of average ABCB1 IC50 and average ABCG2 IC50, efflux assay) [fold] |
| --- | --- | --- | --- | --- | --- |
| O=C(c1ccoc1)N1CCN(c2cc(-c3cccs3)nc3cc(-c4ccccc4)nn23)CC1 [Compound 64] | 3.46 | 2.1 | 1.64 ± 0.03 | – | – |
| Cc1ccc(-c2cc(N3CCN(C(=O)c4ccoc4)CC3)n3nc(-c4ccccc4)cc3n2)o1 [Compound 66] | 0.68 | 0.8 | 0.84 ± 0.87 | – | – |
| O=C(c1ccco1)N1CCN(c2cc(-c3ccco3)nc3cc(-c4ccccc4)nn23)CC1 [Compound 67] | 6.57 ± 2.13 | 2.4 | 2.77 ± 4.01 | – | – |
| O=C(c1ccccc1)N1CCN(c2cc(-c3ccco3)nc3cc(-c4ccccc4)nn23)CC1 [Compound 69] | 5.56 ± 1.25 | 3.4 | 1.62 ± 1.27 | – | – |
| c1ccc(CN2CCN(c3cc(-c4ccco4)nc4cc(-c5ccccc5)nn34)CC2)cc1 [Compound 75] | 8.99 ± 3.67 | 2.9 | 3.07 ± 1.88 | – | – |
| O=C(OCc1ccccc1)N1CCN(c2cc(-c3ccco3)nc3cc(-c4ccccc4)nn23)CC1 [Compound 76] | > 50 | ~19 | 2.71 ± 1.95 | completely lost | 18.5 |
| c1ccc(-c2cc3nc(-c4ccco4)cc(N4CCNCC4)n3n2)cc1 [Compound 77] | 23.6 ± 12.1 | 4.1 | 5.71 ± 1.8 | – | – |
| CNCCCN(C)c1cc(-c2ccco2)nc2cc(-c3ccccc3)nn12 [Compound 79] | 11.9 ± 8.94 | 0.5 | 25.5 ± 13.4 | – | – |
| CN(CCN(C)c1cc(-c2ccco2)nc2cc(-c3ccccc3)nn12)C(=O)c1ccoc1 [Compound 80] | 17.5 ± 5.88 | 1.3 | 13 ± 7.88 | – | – |
| CN(CCCN(C)c1cc(-c2ccco2)nc2cc(-c3ccccc3)nn12)C(=O)c1ccoc1 [Compound 81] | 13.1 ± 6.27 | 2.4 | 5.43 ± 4.11 | – | – |
| CN(C)c1cc(-c2ccco2)nc2cc(-c3ccccc3)nn12 [Compound 82] | 27.7 ± 14.5 | 3.6 | 7.68 ± 1.69 | – | – |
| O=C1CN(c2cc(-c3ccco3)nc3cc(-c4ccccc4)nn23)CCN1c1ccccc1 [Compound 83] | 4.06 ± 1.78 | 2.5 | 1.64 ± 0.52 | – | – |
| O=C(c1ccoc1)N1CCCN(c2cc(-c3ccco3)nc3cc(-c4ccccc4)nn23)C1 [Compound 85] | 19.1 ± 9.52 | 8.5 | 2.25 ± 1.9 | – | – |
| CC1CN(C(=O)c2ccoc2)CCN1c1cc(-c2ccco2)nc2cc(-c3ccccc3)nn12 (centres unmarked) [Compound 86] | 3.27 ± 1.43 | 0.7 | 4.65 ± 3.96 | – | – |
| Cc1nc2cc(-c3ccccc3)nn2c(N2CCN(C(=O)c3ccoc3)CC2)c1C [Compound 89] | 1.63 ± 0.59 | 0.7 | 2.18 ± 1.93 | – | – |
